Where “and” joins values, the source holds several entries; their conditions need not be identical. Equal entries are not always repeated.
Settings: Transpiration method

Cc1ccc([N+](=O)[O-])cc1 [1-methyl-4-nitrobenzene]
Settings | vapor or sublimation pressure
278.2 K, Crystal | 0.00067 kPa
279.6 K, Crystal | 0.0008 kPa
283.3 K, Crystal | 0.00113 kPa
288.2 K, Crystal | 0.00211 kPa
288.3 K, Crystal | 0.00196 kPa
290.3 K, Crystal | 0.00271 kPa
292.2 K, Crystal | 0.00326 kPa
293.2 K, Crystal | 0.00332 kPa
296.8 K, Crystal | 0.00539 kPa
298.2 K, Crystal | 0.00566 kPa
298.3 K, Crystal | 0.00599 kPa
301.4 K, Crystal | 0.00833 kPa
303.2 K, Crystal | 0.00937 kPa
304.3 K, Crystal | 0.011 kPa
307.4 K, Crystal | 0.015 kPa
308.2 K, Crystal | 0.0151 kPa and 0.0149 kPa
310.3 K, Crystal | 0.0193 kPa
313.2 K, Crystal | 0.0252 kPa and 0.0239 kPa
314.3 K, Crystal | 0.0292 kPa
315.2 K, Crystal | 0.0309 kPa
315.7 K, Crystal | 0.033 kPa
316.2 K, Crystal | 0.0354 kPa
316.7 K, Crystal | 0.0359 kPa
317.2 K, Crystal | 0.0383 kPa
318.2 K, Crystal | 0.04 kPa and 0.0377 kPa
319.3 K, Crystal | 0.0438 kPa
320.3 K, Crystal | 0.0483 kPa
321.2 K, Crystal | 0.0523 kPa
322.2 K, Crystal | 0.0569 kPa
323.1 K, Crystal | 0.0544 kPa and 0.0572 kPa
323.3 K, Crystal | 0.0626 kPa
324.3 K, Crystal | 0.0673 kPa
326.2 K, Liquid | 0.0797 kPa
328.1 K, Liquid | 0.0862 kPa and 0.0853 kPa
329.2 K, Liquid | 0.097 kPa
332.2 K, Liquid | 0.1207 kPa and 0.1198 kPa
333 K, Liquid | 0.117 kPa and 0.113 kPa
335.3 K, Liquid | 0.1411 kPa
338 K, Liquid | 0.162 kPa and 0.155 kPa
338.2 K, Liquid | 0.168 kPa
341.2 K, Liquid | 0.1995 kPa
343 K, Liquid | 0.216 kPa and 0.21 kPa
344.4 K, Liquid | 0.2417 kPa
347.1 K, Liquid | 0.2802 kPa
347.9 K, Liquid | 0.274 kPa
348 K, Liquid | 0.29 kPa
350.2 K, Liquid | 0.3388 kPa
352.9 K, Liquid | 0.369 kPa
353 K, Liquid | 0.374 kPa
353.2 K, Liquid | 0.4024 kPa
357.9 K, Liquid | 0.483 kPa
358 K, Liquid | 0.504 kPa
362.9 K, Liquid | 0.622 kPa
363 K, Liquid | 0.66 kPa
367.9 K, Liquid | 0.841 kPa and 0.793 kPa

Cc1cccc([N+](=O)[O-])c1 [3-nitrotoluene]
Liquid
Settings | vapor or sublimation pressure
290.6 K | 0.00648 kPa
293.3 K | 0.00842 kPa
296.3 K | 0.0103 kPa
298.2 K | 0.012 kPa
299.2 K | 0.0127 kPa and 0.0133 kPa
302.2 K | 0.0163 kPa
302.3 K | 0.0168 kPa
303.2 K | 0.0176 kPa and 0.0173 kPa
305.3 K | 0.0211 kPa
308.2 K | 0.0259 kPa [middle of 4 runs]
308.3 K | 0.0267 kPa
311.4 K | 0.0335 kPa
313.2 K | 0.037 kPa and 0.0363 kPa and 0.0361 kPa
314.3 K | 0.0414 kPa
317.2 K | 0.0498 kPa
318.1 K | 0.0516 kPa
318.2 K | 0.0535 kPa and 0.0524 kPa
320.2 K | 0.0607 kPa
323.1 K | 0.0743 kPa and 0.0718 kPa
323.2 K | 0.0732 kPa and 0.0749 kPa
328.1 K | 0.103 kPa
333.1 K | 0.138 kPa
338 K | 0.187 kPa

Cc1ccccc1[N+](=O)[O-] [2-nitrotoluene]
Liquid
Settings | vapor or sublimation pressure
278.3 K | 0.00328 kPa
278.4 K | 0.0032 kPa
283.3 K | 0.00526 kPa and 0.00502 kPa
288.3 K | 0.00806 kPa and 0.00804 kPa
293.2 K | 0.0124 kPa and 0.0119 kPa
298.2 K | 0.0181 kPa and 0.0175 kPa
303.1 K | 0.0259 kPa
303.2 K | 0.0273 kPa
308.1 K | 0.0381 kPa
308.2 K | 0.0391 kPa
313.1 K | 0.0563 kPa and 0.0555 kPa
318 K | 0.0765 kPa
318.1 K | 0.081 kPa
323 K | 0.108 kPa

From the NIST ThermoML archive (doi:10.1016/j.jct.2017.03.029)
